{"source": "patent US20120021434A1", "about": "“METHOD FOR TREATING B CELL REGULATED AUTOIMMUNE DISORDERS” (Synta Pharmaceuticals Corp., priority 2005, published 2012)", "key": {"[1]": {"test_system": "purified mouse splenic (CD19+) B cells", "experiment": "Primary mouse B cell survival, Annexin V/propidium iodide flow cytometry", "assay_type": "cell-based", "settings": "24 h; for viability at 0.0001 µM / viability at 0.001 µM / viability at 0.01 µM / viability at 0.1 µM / viability at 1 µM: Mus musculus, B-cell", "description": "Therefore, the effect of Compound 50 on the activation and survival of homogeneous populations of primary B and T lymphocytes has been explored. As a first step in this process, we evaluated the effect of Compound 50 on the survival of purified mouse splenic (CD19^+) B cells. When cultured ex vivo, primary B cells undergo spontaneous apoptosis within 24-48 h in the absence of any survival signals. Examples of such stimuli include those mediated by anti-CD40 (or CD40L), BAFF, or B cell receptor signals provided by either anti-IgM or LPS. Murine primary B cells were isolated from mouse spleen using anti-CD19 coated magnetic beads (Miltenyi Biotec) according to the manufacturer's recommendations. Purified CD19^+ B cells were cultured at 100,000 cells/well in 96-well microtiter plates in culture medium (RPMI 1640 supplemented with 10% fetal bovine serum, 2 mM L-glutamine, 1 mM sodium pyruvate, 20 mM HEPES, and 55 μM β-mercaptoethanol) in the presence of 10 μg/ml anti-CD40, 5 μg/ml LPS or 100 ng/ml BAFF in the presence or absence of Compound 50 for 24 h and measured the frequency of viable and apoptotic cells using Annexin V/propidum iodide flow cytometric analysis. To perform this analysis, cells were washed with PBS and labeled with Annexin V-FITC and propidium iodide (BioVision) according to the manufacturer's instructions. Apoptotic cell (Annexin V-positive) and live cell (Annexin V-negative/propidium iodide-negative) percentages were determined using a flow cytometer."}, "c-Rel": {"molecular_target": "T1, c-Rel (Mus musculus, UniProt P15307)", "T1 construct": "nuclear extracts from RAW cells stimulated with LPS/IFNγ; endogenous in cells; host or cells: RAW264.7", "T1 sequence (P15307 whole entry)": "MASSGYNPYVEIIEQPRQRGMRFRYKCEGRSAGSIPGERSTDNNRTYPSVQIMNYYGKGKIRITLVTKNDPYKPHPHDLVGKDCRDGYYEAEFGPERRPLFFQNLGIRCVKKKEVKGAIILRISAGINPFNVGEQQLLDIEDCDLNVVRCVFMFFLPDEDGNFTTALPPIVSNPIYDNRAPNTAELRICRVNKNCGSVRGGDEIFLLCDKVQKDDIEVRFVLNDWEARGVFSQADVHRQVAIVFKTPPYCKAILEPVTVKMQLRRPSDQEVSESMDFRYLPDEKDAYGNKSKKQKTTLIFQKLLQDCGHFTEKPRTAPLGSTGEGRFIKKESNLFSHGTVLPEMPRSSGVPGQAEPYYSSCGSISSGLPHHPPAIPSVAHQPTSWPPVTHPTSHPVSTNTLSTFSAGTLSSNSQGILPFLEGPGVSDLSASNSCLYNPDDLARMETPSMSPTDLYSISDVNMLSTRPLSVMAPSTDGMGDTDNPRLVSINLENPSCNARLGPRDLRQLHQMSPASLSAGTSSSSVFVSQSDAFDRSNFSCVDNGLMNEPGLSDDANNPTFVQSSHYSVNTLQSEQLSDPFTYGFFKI", "experiment": "Immunoblot and densitometry of nuclear c-Rel in LPS/IFNγ-stimulated Raw264.7 cells", "assay_type": "cell-based", "settings": "Raw264.7, LPS/IFNγ, immunoblot densitometry", "description": "Methods: 20×10^6 Raw 264.7 cells were treated with either DMSO, LPS/IFNγ, or LPS/IFNγ/Compound 50. (LPS conc. 1 ug/ml f.c.; mouse IFNγ mouse 100 U/ml f.c, Compound 501 uM f.c). (LPS: Sigma Cat # L2654. Mouse IFNγ; Cat # R+D 485-MICF). Cells were pre-treated with Compound 50 for 30 min, then LPS/IFNγ was added. After 3 hrs, nuclear and cytoplasmic extracts were prepared according to the BD™ TransFactor Extraction Kit and user manual. Briefly, cells were washed in PBS, harvested and lysed in hypotonic lysis buffer on ice. Cells were then disrupted by drawing the cell suspension through a No. 27 gauge needle 10 times. Next, the cell suspension was centrifuged, and the cytoplasmic extract (supernatant) was collected. The nuclear pellet was then disrupted by resuspension in high salt extraction buffer and was drawn through the needle 10 times. […]\nAfter treatment with Compound 50, nuclear extract and cytoplasmic extract were prepared from 20×10^6 Raw264.7 cells by using Extraction kits from BD Biosciences (Cat. 631921), and above for experimental details. […] Densitometry analysis was performed using Quantity One software from BioRad.\nThe reduction in c-RelDNA-binding activity correlated with a 40-50% reduction in the levels of nuclear c-Rel as detected by immunoblot analysis (see immunoblot FIG. 14 and densitometry FIG. 15). […]"}}}
{"smiles": "Cc1cccc(/C=N/Nc2cc(N3CCOCC3)nc(OCCc3ccccn3)n2)c1", "note": "[Compound 50, N-(3-Methyl-benzylidene)-N′-[6-morpholin-4-yl-2-(2-pyridin-2-yl-ethoxy)-pyrimidin-4-yl]-hydrazine]", "values": [{"measurement": "% Apoptotic", "setting": "[1]; Anti-CD40 (10 μg/ml), 0.1 nM", "value": 39, "unit": "%"}, {"measurement": "% Apoptotic", "setting": "[1]; Anti-CD40 (10 μg/ml), 1 nM", "value": 37, "unit": "%"}, {"measurement": "% Apoptotic", "setting": "[1]; Anti-CD40 (10 μg/ml), 10 nM", "value": 46, "unit": "%"}, {"measurement": "% Apoptotic", "setting": "[1]; Anti-CD40 (10 μg/ml), 100 nM", "value": 89, "unit": "%"}, {"measurement": "% Apoptotic", "setting": "[1]; Anti-CD40 (10 μg/ml), 1000 nM", "value": 90, "unit": "%"}, {"measurement": "% Apoptotic", "setting": "[1]; BAFF (100 ng/ml), 0.1 nM", "value": 40, "unit": "%"}, {"measurement": "% Apoptotic", "setting": "[1]; BAFF (100 ng/ml), 1 nM", "value": 43, "unit": "%"}, {"measurement": "% Apoptotic", "setting": "[1]; BAFF (100 ng/ml), 10 nM", "value": 52, "unit": "%"}, {"measurement": "% Apoptotic", "setting": "[1]; BAFF (100 ng/ml), 100 nM", "value": 92, "unit": "%"}, {"measurement": "% Apoptotic", "setting": "[1]; BAFF (100 ng/ml), 1000 nM", "value": 93, "unit": "%"}, {"measurement": "% Apoptotic", "setting": "[1]; LPS (5 μg/ml), 0.1 nM", "value": 31, "unit": "%"}, {"measurement": "% Apoptotic", "setting": "[1]; LPS (5 μg/ml), 1 nM", "value": 32, "unit": "%"}, {"measurement": "% Apoptotic", "setting": "[1]; LPS (5 μg/ml), 10 nM", "value": 44, "unit": "%"}, {"measurement": "% Apoptotic", "setting": "[1]; LPS (5 μg/ml), 100 nM", "value": 79, "unit": "%"}, {"measurement": "% Apoptotic", "setting": "[1]; LPS (5 μg/ml), 1000 nM", "value": 79, "unit": "%"}, {"measurement": "viability at 0.0001 µM", "setting": "[1]; Anti-CD40 (10 μg/ml), 0.1 nM", "value": 55, "unit": "%"}, {"measurement": "viability at 0.001 µM", "setting": "[1]; Anti-CD40 (10 μg/ml), 1 nM", "value": 51, "unit": "%"}, {"measurement": "viability at 0.01 µM", "setting": "[1]; Anti-CD40 (10 μg/ml), 10 nM", "value": 48, "unit": "%"}, {"measurement": "viability at 0.1 µM", "setting": "[1]; Anti-CD40 (10 μg/ml), 100 nM", "value": 5, "unit": "%"}, {"measurement": "viability at 1 µM", "setting": "[1]; Anti-CD40 (10 μg/ml), 1000 nM", "value": 3, "unit": "%"}, {"measurement": "viability at 0.0001 µM", "setting": "[1]; BAFF (100 ng/ml), 0.1 nM", "value": 55, "unit": "%"}, {"measurement": "viability at 0.001 µM", "setting": "[1]; BAFF (100 ng/ml), 1 nM", "value": 52, "unit": "%"}, {"measurement": "viability at 0.01 µM", "setting": "[1]; BAFF (100 ng/ml), 10 nM", "value": 43, "unit": "%"}, {"measurement": "viability at 0.1 µM", "setting": "[1]; BAFF (100 ng/ml), 100 nM", "value": 4, "unit": "%"}, {"measurement": "viability at 1 µM", "setting": "[1]; BAFF (100 ng/ml), 1000 nM", "value": 3, "unit": "%"}, {"measurement": "viability at 0.0001 µM", "setting": "[1]; LPS (5 μg/ml), 0.1 nM", "value": 63, "unit": "%"}, {"measurement": "viability at 0.001 µM", "setting": "[1]; LPS (5 μg/ml), 1 nM", "value": 63, "unit": "%"}, {"measurement": "viability at 0.01 µM", "setting": "[1]; LPS (5 μg/ml), 10 nM", "value": 51, "unit": "%"}, {"measurement": "viability at 0.1 µM", "setting": "[1]; LPS (5 μg/ml), 100 nM", "value": 15, "unit": "%"}, {"measurement": "viability at 1 µM", "setting": "[1]; LPS (5 μg/ml), 1000 nM", "value": 13, "unit": "%"}, {"measurement": "B cells apoptotic", "setting": "[1]; concentrations 100 nM, with anti-CD40, LPS or BAFF", "value": "80-90%"}, {"measurement": "reduction in the levels of nuclear c-Rel", "setting": "c-Rel", "value": "40-50%"}]}
